Data taken from patent publication US20160015033A1, “COMPOUNDS DERIVED FROM HERBICIDAL CARBOXYLIC ACIDS AND TETRAALKYLAMMONIUM OR (ARYLALKYL)TRIALKYLAMMONIUM HYDROXIDES” (DOW AGROSCIENCES LLC, priority 2014, published 2016).

Key:
[1] = test system: grapes (Vitis labrusca L.); assay: Volatility evaluation: injury to grapes from vapor exposure; details: wheat sprayed at 11200 g ae/ha, 24 hour vapor exposure at 40° C., evaluated 7 days after exposure
Text: Four pots of wheat (Triticum aestivum L.) grown in 4 inch square pots were sprayed at 11200 g ae/ha with each of the different forms of 2,4-D. Treatments were applied with a tracksprayer manufactured by Allen Machine Works. The sprayer utilized an 8002E spray nozzle, spray pressure of 262 kPa pressure and speed of 1.5 mph (2.4 km/h) to deliver 187 L/Ha. The nozzle height was 46 cm above the plant canopy. The growth stage of the wheat was 1 to 2 leaf. The wheat plants were allowed to thoroughly dry to ensure that none of the spray solution was present when they were moved into a clean pot flat. A known sensitive species, grapes (Vitis labrusca L.) were placed at the opposite end of the flat. All of the pots were covered with a humidome with small ½ inch (1.27 cm) diameter holes cut into the end where the wheat was placed and a small box fan powered with a battery in the other end to pull air across the treated wheat plants and over the top of grapes. Plants were placed into a growth chamber with the temperature set at 40° C. with a 14 hour day and a 10 hour night cycle. A 24 hour exposure period was used after which the sensitive plants were then removed and placed in the greenhouse and evaluated for injury from vapor exposure to the treatments.

[2] = test system: Broadleaf Dock Rumex obtusifolia; assay: Post-emergence greenhouse herbicide evaluation, Broadleaf Dock; assay type: in vivo; details: 560 g ae/ha, 14 days after application, visual injury 0 to 100% vs untreated control
Text: (§1) A peat based potting soil, Metro-mix 360, was used as the soil media for this test. Metro-mix is a growing medium consisting of 35 to 45% specially processed Coconut Coir Pith, 10 to 20% horticultural grade vermiculite, 15 to 25% processed Ash Bark, 20 to 30% choice Canadian Sphagnum Peat Moss and proprietary nutrients and other ingredients. Several seeds of each species were to planted in 10 cm square pots and top watered twice daily. Plant material was propagated in the greenhouse at a constant temperature of 26 to 28° C. and 50 to 60% relative humidity. Natural light was supplemented with 1000-watt metal halide overhead lamps with an average illumination of 500 μE m^−2 s^−1 photosynthetic active radiation (PAR). Day length was 16 hours. Plant material was top-watered prior to treatment and sub-irrigated after treatment. […] The growth stage of the various weed species ranged from 2 to 4 leaf. Treatments were replicated 3 times. Plants were returned to the greenhouse after treatment and sub-watered throughout the duration of the to experiment. Plant material was fertilized twice weekly with Hoagland's fertilizer solution. Percent visual injury assessments were made on a scale of 0 to 100% as compared to the untreated control plants (where 0 is equal to no injury and 100 is equal to complete death of the plant).

Kochia Kochia scoparia = assay: Post-emergence greenhouse herbicide evaluation, Kochia; assay type: in vivo; details: 560 g ae/ha, 14 days after application, visual injury 0 to 100% vs untreated control
Text: as §1

CCCCOCCOC(=O)COc1ccc(Cl)cc1Cl [2,-4-D butoxyethylester (BEE), 2,-4-D butoxyethylester]
% Injury to grapes from vapor exposure [1]: 100%

C[N+](C)(C)C.O=C([O-])COc1nc(Cl)c(Cl)cc1Cl [Compound 2a]
% Control Broadleaf Dock Rumex obtusifolia [2]: 85%
% Control Kochia Kochia scoparia (Kochia Kochia scoparia): 79%

CCC[N+](CCC)(CCC)CCC.O=C([O-])COc1nc(Cl)c(Cl)cc1Cl [Compound 2c]
% Control Broadleaf Dock Rumex obtusifolia [2]: 79%
% Control Kochia Kochia scoparia (Kochia Kochia scoparia): 95%

CCN(CC)CC.O=C(O)COc1nc(Cl)c(Cl)cc1Cl [Triclopyr triethylamine (TEA), Triclopyr triethylamine, reference compound]
% Control Broadleaf Dock Rumex obtusifolia [2]: 81%
% Control Kochia Kochia scoparia (Kochia Kochia scoparia): 91%
% Injury to grapes from vapor exposure [1]: 57%

C[N+](C)(C)CCO.O=C([O-])COc1ccc(Cl)cc1Cl [Compound 1e]
% Control Broadleaf Dock Rumex obtusifolia [2]: 68%
% Control Kochia Kochia scoparia (Kochia Kochia scoparia): 86%

CC[N+](CC)(CC)CC.O=C([O-])COc1ccc(Cl)cc1Cl [Compound 1b]
% Control Broadleaf Dock Rumex obtusifolia [2]: 79%
% Control Kochia Kochia scoparia (Kochia Kochia scoparia): 89%
% Injury to grapes from vapor exposure [1]: 0%

CCC[N+](CCC)(CCC)CCC.O=C([O-])COc1ccc(Cl)cc1Cl [Compound 1c]
% Control Broadleaf Dock Rumex obtusifolia [2]: 73%
% Control Kochia Kochia scoparia (Kochia Kochia scoparia): 83%

COc1c(Cl)ccc(Cl)c1C(=O)[O-].C[N+](C)(C)C [Compound 4a]
% Injury to grapes from vapor exposure [1]: 12%

CNC.O=C(O)COc1ccc(Cl)cc1Cl [2,4-D dimethylamine (DMA), 2,4-D dimethylamine, reference compound]
% Control Broadleaf Dock Rumex obtusifolia [2]: 77%
% Control Kochia Kochia scoparia (Kochia Kochia scoparia): 86%
% Injury to grapes from vapor exposure [1]: 78%

CC[N+](CC)(CC)CC.O=C([O-])COc1nc(Cl)c(Cl)cc1Cl [Compound 2b]
% Control Broadleaf Dock Rumex obtusifolia [2]: 79%
% Control Kochia Kochia scoparia (Kochia Kochia scoparia): 88%
% Injury to grapes from vapor exposure [1]: 6%

Dicamba DMA
% Injury to grapes from vapor exposure [1]: 70%

C[N+](C)(C)C.O=C([O-])COc1ccc(Cl)cc1Cl [Compound 1a]
% Control Broadleaf Dock Rumex obtusifolia [2]: 77%
% Control Kochia Kochia scoparia (Kochia Kochia scoparia): 83%
